Legend:
[1] = target: Tyrosine-protein kinase ABL1 (Homo sapiens) (UniProt P00519); conditions: Compound concentration 1000.0 nM
[2] = target: Mitogen-activated protein kinase 13 (Homo sapiens) (UniProt O15264); conditions: Compound concentration 1000.0 nM
[3] = target: Sigma non-opioid intracellular receptor 1 (Homo sapiens) (UniProt Q99720); conditions: Compound concentration 10.0 uM
[4] = target: Mitogen-activated protein kinase kinase kinase 7 (Homo sapiens) (UniProt O43318); conditions: Compound concentration 1000.0 nM
[5] = target: Serine/threonine-protein kinase 26 (Homo sapiens) (UniProt Q9P289); conditions: Compound concentration 1000.0 nM
[6] = target: Calcium/calmodulin-dependent protein kinase type II subunit beta (Homo sapiens) (UniProt Q13554); conditions: Compound concentration 1000.0 nM
[7] = target: Platelet-derived growth factor receptor alpha (Homo sapiens) (UniProt P16234); conditions: Compound concentration 1000.0 nM
[8] = target: Glycogen synthase kinase-3 alpha (Homo sapiens) (UniProt P49840); conditions: Compound concentration 1000.0 nM
[9] = target: Serine/threonine-protein kinase 35 (Homo sapiens) (UniProt Q8TDR2); conditions: Compound concentration 1000.0 nM
[10] = target: Dual specificity mitogen-activated protein kinase kinase 2 (Homo sapiens) (UniProt P36507); conditions: Compound concentration 1000.0 nM
[11] = target: SRSF protein kinase 2 (Homo sapiens) (UniProt P78362); conditions: Compound concentration 1000.0 nM
[12] = target: Bone morphogenetic protein receptor type-2 (Homo sapiens) (UniProt Q13873); conditions: Compound concentration 1000.0 nM
[13] = target: Serine/threonine-protein kinase Nek2 (Homo sapiens) (UniProt P51955); conditions: Compound concentration 1000.0 nM
[14] = target: Ephrin type-B receptor 4 (Homo sapiens) (UniProt P54760); conditions: Compound concentration 1000.0 nM
[15] = target: Cyclin-dependent kinase 8 (Homo sapiens) (UniProt P49336); conditions: Compound concentration 1000.0 nM
[16] = target: Ephrin type-B receptor 2 (Homo sapiens) (UniProt P29323); conditions: Compound concentration 1000.0 nM
[17] = test system: Leucine-rich repeat serine/threonine-protein kinase 2 (Homo sapiens), Q5S007 [G2019S]; conditions: Compound concentration 1000.0 nM
[18] = target: Mu-type opioid receptor (Homo sapiens) (UniProt P35372); conditions: Compound concentration 10.0 uM
[19] = target: BDNF/NT-3 growth factors receptor (Homo sapiens) (UniProt Q16620); conditions: Compound concentration 1000.0 nM
[20] = target: Dual specificity protein kinase CLK4 (Homo sapiens) (UniProt Q9HAZ1); conditions: Compound concentration 1000.0 nM
[21] = target: Serine/threonine-protein kinase PAK 6 (Homo sapiens) (UniProt Q9NQU5); conditions: Compound concentration 1000.0 nM
[22] = target: Calcium/calmodulin-dependent protein kinase type II subunit gamma (Homo sapiens) (UniProt Q13555); conditions: Compound concentration 1000.0 nM
[23] = test system: Fibroblast growth factor receptor 3 (Homo sapiens), P22607 [G697C]; conditions: Compound concentration 1000.0 nM
[24] = target: Dual specificity mitogen-activated protein kinase kinase 1 (Homo sapiens) (UniProt Q02750); conditions: Compound concentration 1000.0 nM
[25] = target: RAC-gamma serine/threonine-protein kinase (Homo sapiens) (UniProt Q9Y243); conditions: Compound concentration 1000.0 nM
[26] = target: Rho-associated protein kinase 1 (Homo sapiens) (UniProt Q13464); conditions: Compound concentration 1000.0 nM
[27] = target: Rho-associated protein kinase 2 (Homo sapiens) (UniProt O75116); conditions: Compound concentration 1000.0 nM
[28] = test system: Receptor-type tyrosine-protein kinase FLT3 (Homo sapiens), P36888 [UNDEFINED MUTATION]; conditions: Compound concentration 1000.0 nM
[29] = test system: Tyrosine-protein kinase ABL1 (Homo sapiens), P00519 [Y253F]; conditions: Compound concentration 1000.0 nM
[30] = test system: Epidermal growth factor receptor (Homo sapiens), P00533 [UNDEFINED MUTATION]; conditions: Compound concentration 1000.0 nM
[31] = target: Serine/threonine-protein kinase PRP4 homolog (Homo sapiens) (UniProt Q13523); conditions: Compound concentration 1000.0 nM
[32] = target: Casein kinase I isoform gamma-3 (Homo sapiens) (UniProt Q9Y6M4); conditions: Compound concentration 1000.0 nM
[33] = test system: Phosphatidylinositol 4,5-bisphosphate 3-kinase catalytic subunit alpha isoform (Homo sapiens), P42336 [C420R]; conditions: Compound concentration 1000.0 nM
[34] = target: Delta-type opioid receptor (Homo sapiens) (UniProt P41143); conditions: Compound concentration 10.0 uM
[35] = target: Alpha-2B adrenergic receptor (Homo sapiens) (UniProt P18089); conditions: Compound concentration 10.0 uM
[36] = target: Transient receptor potential cation channel subfamily M member 6 (Homo sapiens) (UniProt Q9BX84); conditions: Compound concentration 1000.0 nM
[37] = target: 5-hydroxytryptamine receptor 1B (Homo sapiens) (UniProt P28222); conditions: Compound concentration 10.0 uM
[38] = target: Serine/threonine-protein kinase PLK1 (Homo sapiens) (UniProt P53350); conditions: Compound concentration 1000.0 nM
[39] = target: 5-hydroxytryptamine receptor 7 (Homo sapiens) (UniProt P34969); conditions: Compound concentration 10.0 uM
[40] = test system: Tyrosine-protein kinase ABL1 (Homo sapiens), P00519 [F317I]; conditions: Compound concentration 1000.0 nM
[41] = target: MAP kinase-interacting serine/threonine-protein kinase 1 (Homo sapiens) (UniProt Q9BUB5); conditions: Compound concentration 1000.0 nM
[42] = target: Bone morphogenetic protein receptor type-1A (Homo sapiens) (UniProt P36894); conditions: Compound concentration 1000.0 nM
[43] = target: Serine/threonine-protein kinase Nek9 (Homo sapiens) (UniProt Q8TD19); conditions: Compound concentration 1000.0 nM
[44] = target: Serine/threonine-protein kinase 24 (Homo sapiens) (UniProt Q9Y6E0); conditions: Compound concentration 1000.0 nM
[45] = target: Insulin receptor-related protein (Homo sapiens) (UniProt P14616); conditions: Compound concentration 1000.0 nM
Insulin receptor-related protein (Homo sapiens), sequence (P14616 27-742 limits assumed): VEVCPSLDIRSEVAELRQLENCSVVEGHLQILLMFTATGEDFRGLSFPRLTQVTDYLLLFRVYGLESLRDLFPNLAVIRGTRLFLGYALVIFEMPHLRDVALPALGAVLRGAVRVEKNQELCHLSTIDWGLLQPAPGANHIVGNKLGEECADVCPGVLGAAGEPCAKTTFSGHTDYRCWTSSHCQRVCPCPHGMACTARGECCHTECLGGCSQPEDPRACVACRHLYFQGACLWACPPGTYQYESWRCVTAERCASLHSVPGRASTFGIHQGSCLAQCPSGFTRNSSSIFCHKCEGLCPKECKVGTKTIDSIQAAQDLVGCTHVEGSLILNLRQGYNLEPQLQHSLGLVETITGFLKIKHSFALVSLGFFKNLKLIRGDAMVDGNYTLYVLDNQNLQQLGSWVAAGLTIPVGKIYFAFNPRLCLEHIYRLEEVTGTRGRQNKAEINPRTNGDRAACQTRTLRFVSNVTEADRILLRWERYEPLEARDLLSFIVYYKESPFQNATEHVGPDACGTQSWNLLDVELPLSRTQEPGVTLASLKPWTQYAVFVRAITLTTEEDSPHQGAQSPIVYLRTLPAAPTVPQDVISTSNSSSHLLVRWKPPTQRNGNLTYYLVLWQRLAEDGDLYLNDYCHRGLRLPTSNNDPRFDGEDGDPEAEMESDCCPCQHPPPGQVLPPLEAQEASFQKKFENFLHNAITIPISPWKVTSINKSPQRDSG
Insulin receptor-related protein (Homo sapiens), sequence (P14616 747-1297 limits assumed): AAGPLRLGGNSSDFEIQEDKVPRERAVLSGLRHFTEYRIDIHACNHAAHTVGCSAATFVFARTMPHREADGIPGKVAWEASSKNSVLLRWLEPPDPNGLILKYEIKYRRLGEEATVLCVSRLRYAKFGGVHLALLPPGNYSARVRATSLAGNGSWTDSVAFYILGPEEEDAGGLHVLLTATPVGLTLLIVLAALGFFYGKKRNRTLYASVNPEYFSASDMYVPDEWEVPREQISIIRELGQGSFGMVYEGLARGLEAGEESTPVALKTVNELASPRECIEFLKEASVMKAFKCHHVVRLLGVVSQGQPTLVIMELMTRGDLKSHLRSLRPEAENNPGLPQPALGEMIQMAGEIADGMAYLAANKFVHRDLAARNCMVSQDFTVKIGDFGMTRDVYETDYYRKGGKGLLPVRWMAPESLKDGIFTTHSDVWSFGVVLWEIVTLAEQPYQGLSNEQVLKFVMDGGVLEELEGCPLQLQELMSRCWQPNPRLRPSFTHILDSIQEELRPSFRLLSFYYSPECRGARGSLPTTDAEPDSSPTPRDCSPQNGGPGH

BDNF/NT-3 growth factors receptor (Homo sapiens), sequence (Q16620 32-822 limits assumed): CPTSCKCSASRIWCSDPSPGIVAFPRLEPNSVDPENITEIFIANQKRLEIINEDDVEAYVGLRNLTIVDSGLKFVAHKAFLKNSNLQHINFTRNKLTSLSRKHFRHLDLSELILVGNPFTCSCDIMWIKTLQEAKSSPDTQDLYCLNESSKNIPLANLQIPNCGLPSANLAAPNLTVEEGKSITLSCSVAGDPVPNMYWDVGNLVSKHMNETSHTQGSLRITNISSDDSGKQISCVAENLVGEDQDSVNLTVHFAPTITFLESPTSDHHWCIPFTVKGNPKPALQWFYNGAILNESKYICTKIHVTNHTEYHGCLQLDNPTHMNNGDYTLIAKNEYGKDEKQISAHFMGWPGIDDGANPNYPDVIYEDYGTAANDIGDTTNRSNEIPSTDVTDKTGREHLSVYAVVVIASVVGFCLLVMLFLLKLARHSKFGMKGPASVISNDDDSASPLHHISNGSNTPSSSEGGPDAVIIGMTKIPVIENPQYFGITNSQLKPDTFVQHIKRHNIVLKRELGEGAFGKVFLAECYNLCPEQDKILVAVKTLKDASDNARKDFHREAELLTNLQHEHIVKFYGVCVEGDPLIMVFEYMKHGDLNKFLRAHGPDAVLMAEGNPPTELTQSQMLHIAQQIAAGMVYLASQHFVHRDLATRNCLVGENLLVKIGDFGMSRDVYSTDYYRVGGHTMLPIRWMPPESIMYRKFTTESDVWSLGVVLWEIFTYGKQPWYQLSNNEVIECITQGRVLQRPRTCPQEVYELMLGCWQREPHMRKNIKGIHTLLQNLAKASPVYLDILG
Serine/threonine-protein kinase 35 (Homo sapiens), sequence (Q8TDR2 whole entry): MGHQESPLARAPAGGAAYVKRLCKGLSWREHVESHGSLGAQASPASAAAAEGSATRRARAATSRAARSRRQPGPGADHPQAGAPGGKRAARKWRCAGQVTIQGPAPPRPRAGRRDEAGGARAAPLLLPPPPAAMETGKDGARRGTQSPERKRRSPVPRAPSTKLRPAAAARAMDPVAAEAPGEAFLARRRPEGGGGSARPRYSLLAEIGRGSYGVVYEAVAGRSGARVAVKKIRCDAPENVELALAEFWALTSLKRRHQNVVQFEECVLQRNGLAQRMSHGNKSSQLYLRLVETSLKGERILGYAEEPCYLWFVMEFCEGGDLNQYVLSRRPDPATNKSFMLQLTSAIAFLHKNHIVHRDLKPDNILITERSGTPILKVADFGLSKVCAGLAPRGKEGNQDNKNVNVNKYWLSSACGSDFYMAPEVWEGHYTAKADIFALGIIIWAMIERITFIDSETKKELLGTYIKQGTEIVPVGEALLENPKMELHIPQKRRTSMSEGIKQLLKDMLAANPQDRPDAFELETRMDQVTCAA
Dual specificity protein kinase CLK4 (Homo sapiens), sequence (Q9HAZ1 whole entry, looked up): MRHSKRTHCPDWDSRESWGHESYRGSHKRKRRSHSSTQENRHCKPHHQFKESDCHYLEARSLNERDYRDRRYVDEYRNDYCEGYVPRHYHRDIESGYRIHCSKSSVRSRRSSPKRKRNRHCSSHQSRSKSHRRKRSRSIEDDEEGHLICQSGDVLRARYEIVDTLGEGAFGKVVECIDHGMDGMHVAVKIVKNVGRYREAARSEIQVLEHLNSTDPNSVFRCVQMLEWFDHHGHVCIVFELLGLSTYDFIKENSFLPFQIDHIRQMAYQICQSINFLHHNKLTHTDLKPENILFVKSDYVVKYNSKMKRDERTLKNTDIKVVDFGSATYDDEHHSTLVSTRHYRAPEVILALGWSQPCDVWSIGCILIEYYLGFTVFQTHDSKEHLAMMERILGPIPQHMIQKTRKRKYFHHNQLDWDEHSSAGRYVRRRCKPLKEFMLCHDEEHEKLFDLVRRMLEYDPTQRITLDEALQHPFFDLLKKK
Dual specificity mitogen-activated protein kinase kinase 1 (Homo sapiens), sequence (Q02750 whole entry): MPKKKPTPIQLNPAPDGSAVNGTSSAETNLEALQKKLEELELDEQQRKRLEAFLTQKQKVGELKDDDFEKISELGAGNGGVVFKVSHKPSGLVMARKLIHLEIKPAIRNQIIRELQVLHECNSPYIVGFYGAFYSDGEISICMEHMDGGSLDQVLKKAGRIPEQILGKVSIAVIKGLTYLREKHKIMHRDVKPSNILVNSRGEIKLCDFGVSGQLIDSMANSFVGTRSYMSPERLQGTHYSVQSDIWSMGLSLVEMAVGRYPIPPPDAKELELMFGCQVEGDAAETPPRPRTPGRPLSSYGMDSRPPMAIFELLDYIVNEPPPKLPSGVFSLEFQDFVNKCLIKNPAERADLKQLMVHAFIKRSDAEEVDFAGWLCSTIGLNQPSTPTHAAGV
Rho-associated protein kinase 2 (Homo sapiens), sequence (O75116 whole entry, looked up): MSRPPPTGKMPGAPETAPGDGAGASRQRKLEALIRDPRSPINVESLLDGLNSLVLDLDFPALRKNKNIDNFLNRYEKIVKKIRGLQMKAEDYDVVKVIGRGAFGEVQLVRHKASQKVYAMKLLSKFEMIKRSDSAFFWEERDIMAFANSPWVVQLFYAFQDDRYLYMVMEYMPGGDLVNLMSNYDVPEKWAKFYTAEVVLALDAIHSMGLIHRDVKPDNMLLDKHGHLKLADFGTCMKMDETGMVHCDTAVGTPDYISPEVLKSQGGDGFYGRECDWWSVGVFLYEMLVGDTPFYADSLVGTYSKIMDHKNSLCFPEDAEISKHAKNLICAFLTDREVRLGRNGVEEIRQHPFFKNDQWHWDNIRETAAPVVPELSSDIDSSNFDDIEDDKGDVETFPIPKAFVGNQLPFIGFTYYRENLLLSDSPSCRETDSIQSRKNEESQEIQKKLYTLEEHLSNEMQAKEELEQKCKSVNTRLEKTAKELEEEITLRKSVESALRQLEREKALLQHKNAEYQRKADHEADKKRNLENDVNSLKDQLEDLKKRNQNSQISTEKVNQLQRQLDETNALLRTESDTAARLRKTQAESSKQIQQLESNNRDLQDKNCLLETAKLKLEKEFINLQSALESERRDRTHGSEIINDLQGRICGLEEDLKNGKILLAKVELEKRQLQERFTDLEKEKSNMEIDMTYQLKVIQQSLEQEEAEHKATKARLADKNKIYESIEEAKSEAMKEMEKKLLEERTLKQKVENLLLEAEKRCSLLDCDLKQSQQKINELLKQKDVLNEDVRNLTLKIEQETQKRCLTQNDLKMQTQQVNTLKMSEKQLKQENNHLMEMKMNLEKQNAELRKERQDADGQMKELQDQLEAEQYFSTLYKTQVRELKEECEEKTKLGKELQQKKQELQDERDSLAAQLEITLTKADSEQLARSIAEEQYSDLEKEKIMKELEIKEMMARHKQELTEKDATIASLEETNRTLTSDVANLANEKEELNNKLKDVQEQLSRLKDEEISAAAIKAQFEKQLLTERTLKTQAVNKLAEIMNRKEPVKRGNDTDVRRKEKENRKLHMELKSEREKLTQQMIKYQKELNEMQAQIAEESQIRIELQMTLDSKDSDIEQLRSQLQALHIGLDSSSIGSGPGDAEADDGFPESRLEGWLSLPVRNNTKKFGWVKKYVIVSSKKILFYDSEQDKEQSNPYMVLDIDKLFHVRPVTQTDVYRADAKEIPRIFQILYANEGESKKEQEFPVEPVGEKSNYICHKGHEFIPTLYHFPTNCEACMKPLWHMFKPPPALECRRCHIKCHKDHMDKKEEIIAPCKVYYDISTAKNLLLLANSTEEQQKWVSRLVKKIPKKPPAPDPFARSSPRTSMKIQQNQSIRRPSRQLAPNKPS

SMILES: CS(=O)(=O)NCC[C@H](NC(=O)c1cncc2c1cnn2-c1ccc(F)cc1)c1ccnc(S(C)(=O)=O)c1 [BI 9307]
- residual activity [1]: 100%
- residual activity [2]: 100%
- inhibition [3]: 7.62%
- residual activity [4]: 100%
- residual activity [5]: 98%
- residual activity [6]: 100%
- residual activity [7]: 100%
- residual activity [8]: 100%
- residual activity [9]: 100%
- residual activity [10]: 100%
- residual activity [11]: 100%
- residual activity [12]: 100%
- residual activity [13]: 97%
- residual activity [14]: 100%
- residual activity [15]: 100%
- residual activity [16]: 92%
- residual activity [17]: 92%
- inhibition [18]: -0.92%
- residual activity [19]: 100%
- residual activity [20]: 85%
- residual activity [21]: 100%
- residual activity [22]: 99%
- residual activity [23]: 82%
- residual activity [24]: 100%
- residual activity [25]: 93%
- residual activity [26]: 100%
- residual activity [27]: 100%
- residual activity [28]: 99%
- residual activity [29]: 95%
- residual activity [30]: 92%
- residual activity [31]: 69%
- residual activity [32]: 96%
- residual activity [33]: 98%
- inhibition [34]: -2.19%
- inhibition [35]: -2.26%
- residual activity [36]: 100%
- inhibition [37]: 47.7%
- residual activity [38]: 100%
- inhibition [39]: 4.81%
- residual activity [40]: 85%
- residual activity [41]: 95%
- residual activity [42]: 92%
- residual activity [43]: 100%
- residual activity [44]: 100%
- residual activity [45]: 100%

SMILES: CS(=O)(=O)c1cc(C2(NC(=O)c3cncc4c3cnn4-c3ccc(F)cc3)CC2)ccn1 [BI 639667]
- residual activity [1]: 71%
- residual activity [2]: 93%
- inhibition [3]: 26.4%
- residual activity [4]: 94%
- residual activity [5]: 97%
- residual activity [6]: 100%
- residual activity [7]: 90%
- residual activity [8]: 70%
- residual activity [9]: 100%
- residual activity [10]: 80%
- residual activity [11]: 100%
- residual activity [12]: 99%
- residual activity [13]: 93%
- residual activity [14]: 100%
- residual activity [15]: 100%
- residual activity [16]: 100%
- residual activity [17]: 100%
- inhibition [18]: -7.9%
- residual activity [19]: 91%
- residual activity [20]: 100%
- residual activity [21]: 96%
- residual activity [22]: 72%
- residual activity [23]: 91%
- residual activity [24]: 81%
- residual activity [25]: 96%
- residual activity [26]: 79%
- residual activity [27]: 75%
- residual activity [28]: 58%
- residual activity [29]: 91%
- residual activity [30]: 100%
- residual activity [31]: 100%
- residual activity [32]: 100%
- residual activity [33]: 83%
- inhibition [34]: -5.92%
- inhibition [35]: 13.2%
- residual activity [36]: 91%
- inhibition [37]: 13.5%
- residual activity [38]: 90%
- inhibition [39]: 10.5%
- residual activity [40]: 98%
- residual activity [41]: 47%
- residual activity [42]: 100%
- residual activity [43]: 100%
- residual activity [44]: 82%
- residual activity [45]: 65%

— ChEMBL document CHEMBL4507278 (2021)
